# Measurements taken from patent US20260055138A1, “CARRIER PEPTIDE FRAGMENT AND USE THEREOF” (TOAGOSEI CO., LTD., priority 2022, published 2026).
# Primed or numbered codes have the meaning given here. [ ]: non-standard residue; d: D form. FAM = 5(6)-carboxyfluorescein; FAM″ = C-terminal FAM
# System: HeLa cells
# Assay: Evaluation of cell membrane permeability by flow cytometry
# Format: cell-based, human
# Settings: 10 μM, 20 hours, compared with Example 15
# Description: As the eukaryotic cells, HeLa cells (established cell strain derived from a human cervical cancer cell) were used and the cell membrane permeability of the samples 1 to 15 was analyzed. In Examples 1 to 15, the prepared sample solutions 1 to 15 were used, respectively, and in Example 16, the FAM solution was used.
# The HeLa cell was cultured in 10% fetal bovine serum (FBS)-containing Dulbecco's modified Eagle's medium (DMEM (Cat No. 044-29765, manufactured by FUJIFILM Wako Pure Chemical Corporation)), which is a culture medium.
# The HeLa cell that adhered to a culture plate was cleaned with PBS and then, a 0.25%-trypsin/EDTA solution was added thereto, and incubation was performed for three minutes at 37° C. After the incubation, the aforementioned 10% FBS-containing DMEM was added to deactivate trypsin and then, five-minute centrifugal separation was performed at 150×g to precipitate the cells. After the supernatant generated by the centrifugal separation was removed, the 10% FBS-containing DMEM was added to the precipitate (cell pellet) to prepare a cell suspension of about 2×10^5 cells/mL. The cell suspension was added by 1 mL to a well of a commercially available six-hole (well) plate (manufactured by AGC TECHNO GLASS Co., Ltd.) so as to seed the cell (about 2×10^5 cells/well). In addition, the 2 mM sample solution 1 was diluted with the 10% FBS-containing DMEM to prepare the sample solution 1 in which the concentration of the sample 1 was 20 μM. Then, 1 mL of the 20 μM sample solution 1 was added to the well (that is, so that the concentration of the sample 1 became 10 μM and the DMSO concentration became 0.5% in the culture solution in the well). After that, the cell was incubated for 20 hours at 37° C. under a 5% CO2 condition.
# After the 20-hour incubation, the culture supernatant was removed from the well and the cells in the well were cleaned twice with 1 mL of PBS. Next, 200 μL of the 0.25% trypsin/EDTA solution was added to the well and the incubation was performed for three minutes at 37° C. After the incubation, 400 μL of the 10% FBS-containing DMEM was added to the well to deactivate the trypsin. Subsequently, the cell suspension in the well was transferred to a tube and the cells were collected. After that, 600 μL of PBS was added further to the well to clean the well. Then, PBS in the well was transferred to the tube, so that the cells remaining in the well were collected in the tube. This tube was subjected to five-minute centrifugal separation at 4° C. under a condition of 210×g. After the centrifugal separation, the supernatant was removed and the precipitate (cell pellet) was suspended (cleaned) with 1 mL of PBS, which was followed by the centrifugal separation under the same condition as that described above. After this operation was repeated twice, the supernatant was removed and thus, the cells (cell pellet) cultured in a culture medium containing the sample 1 were obtained.
# Regarding the obtained cells (cell pellet), the cell membrane permeability of the sample 1 was analyzed using a flow cytometer. As the flow cytometer, On-Chip Flowcytometer (manufactured by On-Chip Biotechnologies Co., LTD.) was used.
# For such an analysis, the obtained cell pellet was suspended with 100 μL of on-chip T buffer to prepare a cell suspension for analysis.
# Using the aforementioned flow cytometer, gating based on forward scatter (FSC) and side scatter (SSC) was performed to set a gate about a cell group to be analyzed, and the fluorescence intensity was measured about the cell group in this gate. Note that the analysis was performed so that the cell group contained at least 10000 cells. The fluorescence intensity was measured using a fluorescence detector FL2 of the flow cytometer (optimum detection wavelength around 543 nm) capable of detecting the fluorescence wavelength of FAM. […]
row,Substance,"value of MFI, comparison in words"
1,Ac-KKRTLRKSNRKkR-FAM [Example 12],high in particular

# Same assay, conditions: construct (additive) 10 μM, 0.5% DMSO in culture solution, 20 hours incubation at 37° C., FAM fluorescence, detector FL2
row,Substance,MFI (median fluorescence intensity)
1,Ac-KkRTLRKSNRKKR-FAM (Ac-K[dK]RTLRKSNRKKR-{FAM″}) [Example 2],14.1
2,Ac-KKRTLRKSnRKKR-FAM (Ac-KKRTLRKS[dN]RKKR-{FAM″}) [Example 9],15.6
3,Ac-KKrTLRKSNRKKR-FAM (Ac-KK[dR]TLRKSNRKKR-{FAM″}) [Example 3],13.9
4,Ac-KKRTLRKSNRKkR-FAM [Example 12],33.8
5,"5(6)-carboxyfluorescein [Example 16, reference compound]",10.6
6,Ac-KKRTLRKsNRKKR-FAM (Ac-KKRTLRK[dS]NRKKR-{FAM″}) [Example 8],14.3
7,Ac-kkrtlrksnrkkr-FAM (Ac-[dK][dK][dR][dT][dL][dR][dK][dS][dN][dR][dK][dK][dR]-{FAM″}) [Example 14],16.1
8,Ac-KKRTLRKSNRKKr-FAM (Ac-KKRTLRKSNRKK[dR]-{FAM″}) [Example 13],15.2
9,Ac-KKRTlRKSNRKKR-FAM (Ac-KKRT[dL]RKSNRKKR-{FAM″}) [Example 5],16.5
10,Ac-KKRTLRKSNRKKR-FAM [Example 7] (Ac-KKRTLR[dK]SNRKKR-{FAM}),16.9
11,Ac-KKRTLRKSNRkKR-FAM (Ac-KKRTLRKSNR[dK]KR-{FAM″}) [Example 11],17.4
12,Ac-kKRTLRKSNRKKR-FAM (Ac-[dK]KRTLRKSNRKKR-{FAM″}) [Example 1],13.9
13,Ac-KKRtLRKSNRKKR-FAM (Ac-KKR[dT]LRKSNRKKR-{FAM″}) [Example 4],15.9
14,Ac-KKRTLRKSNrKKR-FAM (Ac-KKRTLRKSN[dR]KKR-{FAM″}) [Example 10],15.5
15,Ac-KKRTLRKSNRKKR-FAM [Example 15] (Ac-KKRTLRKSNRKKR-{FAM″}) [reference compound],13.0
16,Ac-KKRTLrKSNRKKR-FAM [Example 6],17.5
